Paper PMC11819763, “Activity of Potassium Channel BmK-NSPK Inhibitor Regulated by Basic Amino Acid Residues: Novel Insight into the Diverse Peptide Pharmacology” (Molecules, 2025)
Like-named read-outs stand apart in the source and are kept apart here. Positions of bridges follow the written chain, without caps; N, C: chain ends. Residues, ends and D or L forms follow the SMILES beside them.

What was measured:
hKv1.1 channel = assay: Whole-cell patch clamp, hKv1.1 channel currents; type: cell-based, human; settings: 1 μM peptide, mean ± SE, n ≥ 3, SEM
From the text: (§1) The pRc/CMV-hKv1.3 was kindly provided by Professor Stephan Grissmer (University of Ulm, Ulm, Germany) and Professor Olaf Pongs (Zentrum für Molekulare Neurobiologie der Universität Hamburg, Hamburg, Germany). The cDNAs encoding hKv1.1 and hKv1.2 (from Professor Stephan Grissmer, University of Ulm, Ulm, Germany) were subcloned into the vector pIRES2-EGFP (TaKaRa Clontech, Mountain View, CA, USA). The cDNAs encoding hKv1.6 were subcloned into the vector pcDNA 3.1(+) (TaKaRa Clontech, Mountain View, CA, USA). A QuikChange Site-Directed Mutagenesis Kit (Stratagene, La Jolla, CA, USA) was used to produce the mutants based on the wild-type hKv1.3 channel plasmids. All plasmids and their mutants were verified by DNA sequencing before the expression. The three channel chimeras were, respectively, named by hKv1.3-M1 (425DPTSGFS432 → 425ERESQFP432), hKv1.3-M2 (452HPV456 → 452VPT456) and hKv1.3-M3 (425DPTSGFS432 → 425ERESQFP432, 452HPV456 → 452VPT456).
(§2) In a 5% CO2 incubator at 37 °C, HEK293T cells were cultured in DMEM medium (Gibco, Grand Island, NY, USA) supplemented with 10% fetal bovine serum and 1% penicillin/streptomycin. Potassium channel plasmids and pEGFP-N1 were co-transfected into the HEK293 cells using the ExFect Transfection Reagent (Vazyme, Nanjin, China). After one day of transfection, the potassium currents were recorded, and the positive cells were selected based on the presence of GFP fluorescence.
(§3) Whole-cell current measurement and data acquisition were performed using an EPC-10 patch-clamp amplifier controlled by Pulse (HEKA Elektronik, Lambrecht, Germany). The potassium currents were recorded according to the recording protocol for the Kv1 channel, as described in previously published references. Peptides were dissolved in an external solution containing 0.01% BSA for electrophysiological experiments. […]

hKv1.2 channel = assay: Whole-cell patch clamp, hKv1.2 channel currents; type: cell-based, human; settings: 1 μM peptide, mean ± SE, n ≥ 3, SEM
From the text: as §1, §2, §3

hKv1.6 channel = assay: Whole-cell patch clamp, hKv1.6 channel currents; type: cell-based, human; settings: 1 μM peptide, mean ± SE, n ≥ 3, SEM
From the text: as §1, §2, §3

[1] = tested on: hKv1.3-M1 channel (turret domain of hKv1.3 substituted by hKv1.2 region); assay: Whole-cell patch clamp, chimeric hKv1.3-M1 channel currents; type: cell-based, human; settings: mean ± SE, n ≥ 3, SEM
Description: In order to further investigate the effect of basic residue number on BmK-NSPK pharmacology, the activities of BmK-NSPK analogs were also tested on the Kv1.3 channel chimeras in this work. […] Based on the weak inhibition potencies of BmK-NSPK-7K and BmK-NSPK-8K towards hKv1.2 channel (Figure 5C,D), the work first constructed the chimeric hKv1.3-M1, in which the turret domain of hKv1.3 channel was substituted by the equivalent region of hKv1.2 channel (Figure 6A). Pharmacological experiments with 100 nM and 1 μM MeuKTX were able to inhibit 45.7 ± 7.9% and 82.8 ± 6.1% of hKv1.3-M1 channel currents, respectively (Figure 6B).
as §1, §2
(§4) Whole-cell current measurement and data acquisition were performed using an EPC-10 patch-clamp amplifier controlled by Pulse (HEKA Elektronik, Lambrecht, Germany). The potassium currents were recorded according to the recording protocol for the Kv1 channel, as described in previously published references. Peptides were dissolved in an external solution containing 0.01% BSA for electrophysiological experiments. The patch pipette solution contained 140 mM KF (Sigma, St. Louis, MC, USA), 2 mM MgCl2 (Sinopharm Chemical Reagent Co., Ltd., Shanghai, China), 1 mM EGTA (Sigma) and 10 mM HEPES (neoFroxx, Einhausen, Hessen, Germany) (pH adjusted to 7.4 with KOH (Sinopharm Chemical Reagent Co., Ltd., Shanghai, China)), and the bath solution contained 4.5 mM KCl, 160 Mm NaCl (Sinopharm Chemical Reagent Co., Ltd., Shanghai, China), 5 mM HEPES, 2 mM CaCl2 (Sinopharm Chemical Reagent Co., Ltd., Shanghai, China) and 1 mM MgCl2 (pH adjusted to 7.4 with NaOH (Sinopharm Chemical Reagent Co., Ltd., Shanghai, China)).
(§5) Graphing and data analysis were conducted using GraphPad Prism software (Version 8.0, San Diego, CA, USA), ClampFit software (version 10.2, Molecular Devices, Sunnyvale, CA, USA), and SigmaPlot software (version 12.0, IBM SPSS, Chicago, IL, USA). The dose–response relationship between the channel current and peptide inhibition was modeled by the modified Hill equation: Ipeptide/Icontrol = 1/{1 + [peptide]/IC50}, where Ipeptide represents the potassium current under peptide inhibition, Icontrol represents the peak current, IC50 is the half-maximal inhibition concentration and [peptide] represents the peptide concentration. The IC50 was obtained by fitting the Hill equation. Results are presented as mean ± SE, with each sample tested on at least three cells (n ≥ 3).

[2] = tested on: hKv1.3-M2 channel (filter region of hKv1.3 substituted by hKv1.2 region); assay: Whole-cell patch clamp, chimeric hKv1.3-M2 channel currents; type: cell-based, human; settings: mean ± SE, n ≥ 3, SEM
Description: Apart from the chimeric hKv1.3-M1, this work further constructed the chimeric hKv1.3-M2 channel, in which the filter region of hKv1.3 channel was substituted by the equivalent region of hKv1.2 channel (Figure 6A). Pharmacological experiments 100 nM and 1 μM MeuKTX were able to inhibit 78.3 ± 4.9% and 95.9 ± 1.3% of hKv1.3-M2 channel currents, respectively, which indicated the minor effect of channel filter region on MeuKTX binding (Figure 6B). However, more significant effects were also observed for BmK-NSPK analogs with different numbers of basic residues.
as §1, §2, §4, §5

[3] = tested on: hKv1.3-M3 channel (turret, pore helix and filter region of hKv1.3 replaced by hKv1.2 regions); assay: Whole-cell patch clamp, chimeric hKv1.3-M3 channel currents; type: cell-based, human; settings: mean ± SE, n ≥ 3, SEM
From the text: as §1, §2, §4, §5

[4] = molecular target: human Kv1.3 potassium channel (human) (UniProt P22001)
Sequence of human Kv1.3 potassium channel (human) (P22001 whole entry): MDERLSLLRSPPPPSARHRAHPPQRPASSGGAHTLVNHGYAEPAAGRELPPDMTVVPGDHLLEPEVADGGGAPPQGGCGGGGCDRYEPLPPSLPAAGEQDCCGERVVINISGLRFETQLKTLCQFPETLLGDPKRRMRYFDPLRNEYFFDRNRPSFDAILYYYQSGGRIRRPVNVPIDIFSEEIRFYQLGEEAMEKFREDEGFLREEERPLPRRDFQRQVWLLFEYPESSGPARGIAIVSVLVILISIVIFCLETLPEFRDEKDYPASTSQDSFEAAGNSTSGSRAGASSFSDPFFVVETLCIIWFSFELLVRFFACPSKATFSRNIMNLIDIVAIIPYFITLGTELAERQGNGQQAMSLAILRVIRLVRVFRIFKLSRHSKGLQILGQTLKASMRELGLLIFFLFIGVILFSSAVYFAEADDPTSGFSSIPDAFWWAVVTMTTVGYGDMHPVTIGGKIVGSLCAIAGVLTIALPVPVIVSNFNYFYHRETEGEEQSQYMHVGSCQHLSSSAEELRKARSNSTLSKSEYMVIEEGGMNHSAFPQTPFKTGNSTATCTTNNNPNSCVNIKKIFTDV

hKv1.1 channel (human) = hKv1.1 channel (human) (UniProt Q09470)
Sequence of hKv1.1 channel (human) (Q09470 whole entry): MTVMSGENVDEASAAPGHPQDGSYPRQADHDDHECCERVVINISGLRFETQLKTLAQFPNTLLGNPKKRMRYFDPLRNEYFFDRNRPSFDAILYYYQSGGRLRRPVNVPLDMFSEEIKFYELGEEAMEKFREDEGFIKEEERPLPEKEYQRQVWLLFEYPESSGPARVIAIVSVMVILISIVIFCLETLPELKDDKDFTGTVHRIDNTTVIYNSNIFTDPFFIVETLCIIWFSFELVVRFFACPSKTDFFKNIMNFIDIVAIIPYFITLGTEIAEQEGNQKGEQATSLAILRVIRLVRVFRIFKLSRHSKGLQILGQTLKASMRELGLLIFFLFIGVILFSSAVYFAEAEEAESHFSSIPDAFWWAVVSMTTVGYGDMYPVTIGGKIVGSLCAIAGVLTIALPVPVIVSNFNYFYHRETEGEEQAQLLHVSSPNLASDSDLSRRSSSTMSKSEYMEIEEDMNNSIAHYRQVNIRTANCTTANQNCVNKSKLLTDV

hKv1.2 channel (human) = hKv1.2 channel (human) (UniProt P16389)
Sequence of hKv1.2 channel (human) (P16389 whole entry): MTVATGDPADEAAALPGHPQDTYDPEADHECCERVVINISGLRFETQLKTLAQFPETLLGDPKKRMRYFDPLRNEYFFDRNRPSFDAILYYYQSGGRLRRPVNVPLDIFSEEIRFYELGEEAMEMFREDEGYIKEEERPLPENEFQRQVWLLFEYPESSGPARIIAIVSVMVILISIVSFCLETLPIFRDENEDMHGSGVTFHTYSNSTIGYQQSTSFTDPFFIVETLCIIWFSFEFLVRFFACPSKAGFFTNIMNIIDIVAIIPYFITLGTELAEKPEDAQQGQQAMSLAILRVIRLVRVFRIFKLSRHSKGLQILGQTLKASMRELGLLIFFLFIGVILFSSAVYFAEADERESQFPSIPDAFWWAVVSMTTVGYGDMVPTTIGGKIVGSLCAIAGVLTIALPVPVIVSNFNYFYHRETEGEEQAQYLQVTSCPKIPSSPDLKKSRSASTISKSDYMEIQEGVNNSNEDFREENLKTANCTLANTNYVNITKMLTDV

hKv1.6 channel (human) = hKv1.6 channel (human) (UniProt P17658)
Sequence of hKv1.6 channel (human) (P17658 whole entry): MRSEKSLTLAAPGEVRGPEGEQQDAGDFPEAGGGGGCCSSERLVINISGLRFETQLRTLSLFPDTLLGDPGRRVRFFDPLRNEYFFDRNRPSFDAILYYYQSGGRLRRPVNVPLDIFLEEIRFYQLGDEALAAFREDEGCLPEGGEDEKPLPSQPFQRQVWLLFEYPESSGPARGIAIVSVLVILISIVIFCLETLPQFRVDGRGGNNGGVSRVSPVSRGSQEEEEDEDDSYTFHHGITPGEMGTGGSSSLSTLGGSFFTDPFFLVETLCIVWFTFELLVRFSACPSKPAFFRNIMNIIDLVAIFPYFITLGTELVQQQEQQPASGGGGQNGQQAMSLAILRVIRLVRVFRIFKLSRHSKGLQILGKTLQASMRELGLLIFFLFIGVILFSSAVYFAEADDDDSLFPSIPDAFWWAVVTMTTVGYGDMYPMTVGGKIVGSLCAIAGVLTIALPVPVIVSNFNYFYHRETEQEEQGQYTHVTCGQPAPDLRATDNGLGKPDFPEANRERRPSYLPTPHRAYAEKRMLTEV

[5] = molecular target: human Kv1.3 potassium channel (human) (UniProt P22001); remark: listed apart in the source

Sequence of KTX-2 peptide (P45696 23-59): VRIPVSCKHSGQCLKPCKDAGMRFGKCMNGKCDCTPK
Sequence of KTX-3 peptide (P59290 whole entry): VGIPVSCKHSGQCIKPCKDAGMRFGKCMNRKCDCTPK

Compound: CC[C@H](C)[C@H](NC(=O)CNC(=O)[C@@H](N)C(C)C)C(=O)N[C@@H](CC(N)=O)C(=O)N[C@H](C(=O)N[C@@H](CCCCN)C(=O)N[C@H]1CSSC[C@@H]2NC(=O)[C@H](CCCCN)NC(=O)CNC(=O)[C@H](Cc3ccccc3)NC(=O)[C@H](CCCNC(=N)N)NC(=O)[C@H](CCSC)NC(=O)CNC(=O)[C@H](C)NC(=O)[C@H](CC(=O)O)NC(=O)[C@H](CCCCN)NC(=O)[C@@H]3CSSC[C@@H](C(=O)N[C@H](C(=O)N4CCC[C@H]4C(=O)N[C@@H](CCCCN)C(=O)NCC(=O)O)[C@@H](C)O)NC(=O)[C@H](CC(=O)O)NC(=O)[C@H](CSSC[C@H](NC(=O)[C@H](CCC(N)=O)NC(=O)CNC(=O)[C@H](CO)NC(=O)[C@H](Cc4c[nH]cn4)NC(=O)[C@H](CCCCN)NC1=O)C(=O)N[C@@H](CC(C)C)C(=O)N[C@@H](CCCCN)C(=O)N1CCC[C@H]1C(=O)N3)NC(=O)[C@H](CCCCN)NC(=O)CNC(=O)[C@H](CC(N)=O)NC(=O)[C@H](CCSC)NC2=O)C(C)C [BmK-NSPK-7K] (H-VGINVKCKHSGQCLKPCKDAGMRFGKCMNGKCDCTPKG-OH; disulfide 7-27, 13-32, 17-34 (inferred); N-terminus and C-terminus assumed)
- inhibition of hKv1.1 channel currents (hKv1.1 channel): 84.1 ± 7.0%
- inhibition of hKv1.2 channel currents (hKv1.2 channel): 9.2 ± 0.6%
- inhibition of hKv1.6 channel currents (hKv1.6 channel): 79.2 ± 2.4%
- inhibition of hKv1.3-M1 channel currents ([1]; 100 nM peptide): 23.4 ± 3.4%
- inhibition of hKv1.3-M1 channel currents ([1]; 1 μM peptide): 78.8 ± 3.4%
- inhibition of hKv1.3-M2 channel currents ([2]; 100 nM peptide): 35.4 ± 6.7%
- inhibition of hKv1.3-M2 channel currents ([2]; 1 μM peptide): 72.9 ± 7.0%
- inhibition of hKv1.3-M3 channel currents ([3]; 100 nM peptide): 1.2 ± 0.21%
- inhibition of hKv1.3-M3 channel currents ([3]; 1 μM peptide): 7.4 ± 0.64%

Compound: CC[C@H](C)[C@H](NC(=O)CNC(=O)[C@@H](N)C(C)C)C(=O)N[C@@H](CC(N)=O)C(=O)N[C@H](C(=O)N[C@@H](CCCCN)C(=O)N[C@H]1CSSC[C@@H]2NC(=O)[C@H](CCCCN)NC(=O)CNC(=O)[C@H](Cc3ccccc3)NC(=O)[C@H](CCCNC(=N)N)NC(=O)[C@H](CCSC)NC(=O)CNC(=O)[C@H](C)NC(=O)[C@H](CC(=O)O)NC(=O)[C@H](CCCCN)NC(=O)[C@@H]3CSSC[C@@H](C(=O)N[C@H](C(=O)N4CCC[C@H]4C(=O)N[C@@H](CCCCN)C(=O)O)[C@@H](C)O)NC(=O)[C@H](CC(=O)O)NC(=O)[C@H](CSSC[C@H](NC(=O)[C@H](CCC(N)=O)NC(=O)CNC(=O)[C@H](CO)NC(=O)[C@H](Cc4c[nH]cn4)NC(=O)[C@H](CCCCN)NC1=O)C(=O)N[C@@H](CC(C)C)C(=O)N[C@@H](CCCCN)C(=O)N1CCC[C@H]1C(=O)N3)NC(=O)[C@H](CCCCN)NC(=O)CNC(=O)[C@H](CC(N)=O)NC(=O)[C@H](CCSC)NC2=O)C(C)C [MeuKTX, reference compound] (H-VGINVKCKHSGQCLKPCKDAGMRFGKCMNGKCDCTPK-OH; disulfide 7-27, 13-32, 17-34 (inferred); N-terminus and C-terminus assumed)
- inhibition of hKv1.1 channel currents (hKv1.1 channel): 90.7 ± 1.1%
- inhibition of hKv1.2 channel currents (hKv1.2 channel): 14.6 ± 2.6%
- inhibition of hKv1.6 channel currents (hKv1.6 channel): 77.4 ± 2.7%
- inhibition of hKv1.3-M1 channel currents ([1]; 100 nM peptide): 45.7 ± 7.9%
- inhibition of hKv1.3-M1 channel currents ([1]; 1 μM peptide): 82.8 ± 6.1%
- inhibition of hKv1.3-M2 channel currents ([2]; 100 nM peptide): 78.3 ± 4.9%
- inhibition of hKv1.3-M2 channel currents ([2]; 1 μM peptide): 95.9 ± 1.3%
- inhibition of hKv1.3-M3 channel currents ([3]; 100 nM peptide): 3.9 ± 0.21%
- inhibition of hKv1.3-M3 channel currents ([3]; 1 μM peptide): 16.1 ± 2.0%

Compound: BmK-NSPK peptide
- inhibition of hKv1.3 channel currents by 1 μM peptide (whole-cell patch clamp, HEK293T) [4]: 2.3%
- inhibition of hKv1.1 channel currents by 1 μM peptide (whole-cell patch clamp, HEK293T) (hKv1.1 channel (human)): 1.2%
- inhibition of hKv1.2 channel currents by 1 μM peptide (whole-cell patch clamp, HEK293T) (hKv1.2 channel (human)): 1.7%
- inhibition of hKv1.6 channel currents by 1 μM peptide (whole-cell patch clamp, HEK293T) (hKv1.6 channel (human)): 5.4%

Compound: BmK-NSPK-I18K/I26K/K28M (peptide)
- inhibition of hKv1.3 channel currents by 1 μM peptide (whole-cell patch clamp, HEK293T) [5]: 26.5%

Compound: KTX-2 peptide (from UniProt P45696 23-59)
- IC50 of inhibition of hKv1.3 channel currents (whole-cell patch clamp, HEK293T) [4]: 0.32 nM
- inhibition of hKv1.3 channel currents by 1 μM peptide (whole-cell patch clamp, HEK293T) [4]: 94.9%

Compound: KTX-3 peptide (from UniProt P59290 1-37)
- IC50 of inhibition of hKv1.3 channel currents (whole-cell patch clamp, HEK293T) [4]: 0.46 nM
- inhibition of hKv1.3 channel currents by 1 μM peptide (whole-cell patch clamp, HEK293T) [4]: 91.6%

Compound: MeuKTX peptide
- IC50 of inhibition of hKv1.3 channel currents (whole-cell patch clamp, HEK293T) [4]: 2.63 nM
- inhibition of hKv1.1 channel currents by 1 μM peptide (whole-cell patch clamp, HEK293T) (hKv1.1 channel (human)): 90.7%
- inhibition of hKv1.2 channel currents by 1 μM peptide (whole-cell patch clamp, HEK293T) (hKv1.2 channel (human)): 14.6%
- inhibition of hKv1.6 channel currents by 1 μM peptide (whole-cell patch clamp, HEK293T) (hKv1.6 channel (human)): 77.4%
